Data on six compounds can be found in ChEMBL document CHEMBL1208722, “Synthesis of 2-(4-substituted benzyl-1,4-diazepan-1-yl)-N-(3,4-dihydro-3-oxo-2H-benzo[b][1,4]oxazin-7-yl)acetamides and their positive inotropic evaluation” (Bioorg Med Chem Lett, 2010).

Data set [1] is described as follows: Chronotropic activity in perfused rabbit left atrium assessed as change in heart rate (RVB = 92.52 +/- 017 beats/mins). It is filed as tissue-based, Oryctolagus cuniculus, Cardiac atrium.
The nature of data set [2]: Positive inotropic activity in perfused rabbit left atrium assessed as increase in stroke volume at 10 uM. Type of data set: functional, Oryctolagus cuniculus, Cardiac atrium.
Data set [3] is described as follows: Chronotropic activity in perfused rabbit left atrium assessed as change in heart rate (RVB = 89.51 +/- 0.09 beats/mins). Type of data set: tissue-based, Oryctolagus cuniculus, Cardiac atrium.
For the next data set, the species on record is Oryctolagus cuniculus. The experiment in a line: Positive inotropic activity in perfused rabbit left atrium assessed as increase in stroke volume. Type of data set: functional, tissue-based. The settings on record: Cardiac atrium.
Data set [4] is described as follows: Chronotropic activity in perfused rabbit left atrium assessed as change in heart rate (RVB = 102.31 +/- 0.07 beats/mins). Type of data set: tissue-based, Oryctolagus cuniculus, Cardiac atrium.
Data set [5] can be described thus: Chronotropic activity in perfused rabbit left atrium assessed as change in heart rate (RVB = 105.33 +/- 0.12 beats/mins). Type of data set: tissue-based, Oryctolagus cuniculus, Cardiac atrium.

On to `COc1ccc(CN2CCCN(CC(=O)Nc3ccc4c(c3)OCC(=O)N4)CC2)cc1`, for which the Activity is 89.37 bpm in data set [1] and 3.22% in data set [2].

`COc1cc(CN2CCCN(CC(=O)Nc3ccc4c(c3)OCC(=O)N4)CC2)ccc1OCc1ccc(Cl)cc1`: the Activity in data set [2] stood at 2.87%; in data set [3] it was 80.02 bpm. As for `O=C(CN1CCCN(Cc2ccccc2Br)CC1)Nc1ccc2c(c1)OCC(=O)N2`, the Activity result in the data set filed under Oryctolagus cuniculus was “Dose-dependent effect”; in data set [4] it was 98.64 bpm; in data set [2], 7.68%. `O=C(CN1CCCN(Cc2ccccc2F)CC1)Nc1ccc2c(c1)OCC(=O)N2`: the Activity in data set [5] is on record as 102.88 bpm; in data set [2], 6.05%. Consider `COc1cccc(CN2CCN(CC(=O)Nc3ccc4c(c3)OCC(=O)N4)CC2)c1`, for which the Activity in data set [2] turned out to be 3.96%. Regarding `Cc1[nH]c(=O)c(C#N)cc1-c1ccncc1` [MILRINONE], the Activity in data set [2] is 2.38%.
